Results: PubChem BioAssay (NCI)
Values joined by “and” are separate entries in the source; they are usually repeats but may differ in a detail not shown here. Equal values may be shown once.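 Values below derive from 48-hour exposures of cells grown in 96-well plates, with endpoints linearly interpolated between the two concentrations bracketing the appropriate inhibition level. Abbreviation: GI50, concentration required for 50% inhibition of growth. TGI: total growth inhibition.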

How the values were obtained:
Assay in all cases: growth of human tumour cells (NCI), 48 h
SW-620 colon = test system: SW-620 colon
SNB-19 CNS = test system: SNB-19 CNS
NCI-H23 lung = test system: NCI-H23 lung
NCI-H226 lung = test system: NCI-H226 lung
OVCAR-4 ovarian = test system: OVCAR-4 ovarian
SF-295 CNS = test system: SF-295 CNS
PC-3 prostate = test system: PC-3 prostate
MDA-MB-231 breast = test system: MDA-MB-231 breast
HCT-15 colon = test system: HCT-15 colon
COLO 205 colon = test system: COLO 205 colon

Row | Structure (SMILES) | TGI (SW-620 colon) [µM] | TGI (SNB-19 CNS) | TGI (NCI-H23 lung) | TGI (NCI-H226 lung) | TGI (OVCAR-4 ovarian) [µM] | TGI (SF-295 CNS) | GI50 (SW-620 colon) [µM] | GI50 (PC-3 prostate) [µM] | TGI (PC-3 prostate) [µM] | GI50 (MDA-MB-231 breast) [µM] | TGI (MDA-MB-231 breast) [µM] | GI50 (HCT-15 colon) [µM] | TGI (HCT-15 colon) [µM] | GI50 (SNB-19 CNS) [µM] | GI50 (NCI-H23 lung) [µM] | GI50 (NCI-H226 lung) [µM] | GI50 (OVCAR-4 ovarian) [µM] | GI50 (SF-295 CNS) [µM] | TGI (COLO 205 colon) | GI50 (COLO 205 colon) [µM]
1 | O=C(NC1CCCC1=O)c1ccccc1 (configuration not stated) | > 100 | > 100 µM | > 100 µM | > 100 µM | > 100 | > 100 µM |  |  |  |  |  |  |  |  |  |  |  |  |  | 
2 | CN1CCN(CC(O)COc2c(Br)c(Br)c(Br)c3c2OC(C)(C)C3)CC1 (configuration not stated) | 8.81 | 42.9 µM | 34.1 µM | 61.4 µM | 35.1 | 3.77 µM | 3.16 | 5.06 | 21.1 | 2.56 | 6.8 | 2.79 | 6.16 | 12.7 | 14 | 24.2 | 13.7 | 1.79 |  | 
3 | CC1(C)CCC[C@]2(C)[C@@H](C=O)C(C=O)=CC[C@@H]12 | > 100 | 77.4 µM | 69.5 µM | 56.1 µM | 44.9 | 75.1 µM |  |  | > 100 |  | 23.1 |  | 30.7 |  |  |  |  |  | 36.5 µM | 
4 | COc1cc(/C=C/[N+](=O)[O-])cc(Br)c1OC | 3.37 | 19.2 µM | 5.28 µM | 52.8 µM | 20.8 | 9.88 µM | 1.57 | 3.5 | 13.2 | 3.03 | 8.05 | 2.68 | 8.98 | 6.93 | 2.06 | 16.7 | 7.65 | 2.64 | 4.58 µM | 2.17
5 | CN1CCC(n2cnc(-c3ccc(F)cc3)c2-c2ccnc(N)n2)CC1 | > 25 | > 25 µM | > 25 µM | > 25 µM | > 25 | > 25 µM | 5.93 | 9.28 | > 25 | 13.5 | > 25 | 10.5 | > 25 | 10.3 | 10.6 | 10.9 | 7.04 | 9.36 | > 25 µM | 7.07
6 | C/C1=C\[C@@H](O)C(=O)/C=C/C=C\c2csc(n2)[C@@H](C)NC(=O)C[C@@]2(CC1)S(=O)SC(=O)[C@]2(C)O (some centres not stated) | 0.0143 | 0.511 µM and 2.87 µM | 0.0275 µM and 0.0102 µM | 0.558 µM and 0.327 µM | 0.0793 | 0.59 µM and 3.73 µM |  |  | 0.0387 |  | 0.265 |  |  | 1.15 |  | 0.0254 |  | 0.053 | 0.0903 µM and 0.0418 µM | 
7 | C=C1CCC2[C@@H](CCC3[C@]2(C)CCC[C@]3(C)C(=O)OC)[C@@H]1CC=O (some centres not stated) | 37.6 | > 100 µM | 66.5 µM | > 100 µM | 85.2 | > 100 µM |  |  |  |  |  |  | 81.2 | 47.5 |  |  |  | 50.2 | > 100 µM | 
8 | C[C@@H]1O[C@@H](OC[C@H]2O[C@@H](OCCc3ccc(O)c(O)c3)[C@H](O)[C@@H](O)[C@@H]2OC(=O)/C=C/c2ccc(O)c(O)c2)[C@H](O)[C@H](O)[C@H]1O | > 100 | > 100 µM |  | > 100 µM | > 100 | > 100 µM | > 100 | > 100 | > 100 | > 100 | > 100 | > 100 | > 100 | > 100 |  | > 100 | > 100 | > 100 | > 100 µM | > 100
9 | Fc1cccc(C2SCc3nc4ccccc4n32)c1F (configuration not stated) | > 100 | > 100 µM | > 100 µM | > 100 µM | > 100 | > 100 µM |  |  |  |  |  |  | > 100 |  |  |  |  |  | > 100 µM | 
10 | O=C([CH-]C(=O)c1ccccc1)c1ccccc1.O=C([CH-]C(=O)c1ccccc1)c1ccccc1.[OH-].[OH-].[Ti+4] | > 100 | > 100 µM |  | > 100 µM |  | > 100 µM | 49 |  |  |  |  | > 100 | > 100 | 39.9 |  | 58 |  | 30.4 | > 100 µM | > 100
11 | CN(C)c1ccc(/C=C2\C=Cc3ccccc32)cc1 | > 100 | > 100 µM | > 100 µM |  | > 100 | > 100 µM |  |  |  |  |  |  | > 100 |  |  |  |  |  | > 100 µM | 
12 | c1ccc(P(=Nc2ccccc2N=P(c2ccccc2)(c2ccccc2)c2ccccc2)(c2ccccc2)c2ccccc2)cc1 | 14.3 | 16.9 µM | 2.25 µM | 1.38 µM | 14.9 | 10.7 µM |  |  |  |  |  |  |  |  |  |  |  |  | 3.04 µM | 
13 | COc1cc2c(cc1OC)C1(c3ccc(Cl)cc3)ON=C(c3ccccc3)N1CS2 (configuration not stated) | > 100 | > 100 µM | > 100 µM | > 100 µM | > 100 | > 100 µM |  |  |  |  |  |  | > 100 |  |  |  |  |  | > 100 µM | 
14 | COc1ccc(C=O)c(NC(=O)C(C)C)c1 | > 10 | > 100 µM | > 100 µM | > 10 µM | > 100 | > 100 µM |  |  |  |  |  |  | > 100 |  |  |  |  |  | 34.1 µM | 
15 | CC1(C)OC2C(=O)C=C(COCc3ccccc3)C2O1 (configuration not stated) | 52.2 | > 100 µM | 59.4 µM | 61.5 µM |  | > 100 µM |  |  | > 100 |  | > 100 |  | > 100 |  |  |  |  |  | 41 µM | 
16 | Cc1nc2ccccc2c(/C=C/c2ccc(Br)cc2)c1C(=O)/C=C/c1ccccc1 | 4.45 | 3.05 µM | 3.81 µM | 3.35 µM | 4.49 |  | 1.54 |  |  | 1.84 | 3.94 | 1.31 | 3.71 | 1.62 | 1.66 | 1.67 | 1.69 |  | 3.47 µM | 1.51
17 | COc1cc2nc(NCCCCCNC(=O)c3ccco3)nc(N)c2cc1OC | 58.1 | > 100 µM | > 100 µM | 95.6 µM | > 100 | > 100 µM |  |  |  |  |  |  | > 100 |  |  |  |  |  | 38.2 µM | 
18 | CC1(C)OCC(C(O)C2OC(C)(C)OC2/C=N\O)O1 (configuration not stated) | > 100 | > 100 µM | > 100 µM |  |  | > 100 µM |  |  |  |  |  |  |  |  |  |  |  |  | > 100 µM | 
